Assay results: ChEMBL document CHEMBL4251736, “Discovery of Novel Diarylpyrimidine Derivatives as Potent HIV-1 NNRTIs Targeting the "NNRTI Adjacent" Binding Site” (ACS Med Chem Lett, 2018)
Activity calls are given as the source filed them. The rule behind the calls is not given here.

How the values were obtained:
[1] = system: Human immunodeficiency virus 2; test: Antiviral activity against HIV2 ROD infected in human MT4 cells assessed as inhibition of virus-induced cytopathic effect after 5 days by MTT assay; assay type: functional, organism-based; settings: ISOLATE ROD
[2] = biological target: Human immunodeficiency virus type 1 reverse transcriptase (Human immunodeficiency virus 1, UniProt Q72547); test: Inhibition of recombinant wild type HIV1 reverse transcriptase assessed as decrease in biotin-dUTP incorporation using DIG-labeled dUTP/biotin-labeled dUTP and dTTP as template and viral nucleotides after 1 hr by ELISA
[3] = system: Human immunodeficiency virus 1; test: Antiviral activity against wild type HIV1 3B infected in human MT4 cells assessed as inhibition of virus-induced cytopathic effect after 5 days by MTT assay; assay type: functional, organism-based; settings: Human immunodeficiency virus 1, 3B, MT4, 120 h
[4] = Selectivity index, ratio of CC50 for human MT4 cells to EC50 for wild type HIV1 3B; assay type: toxicity; settings: read-out: Ratio CC50/EC50
[5] = Cytotoxicity against human MT4 cells assessed as decrease in cell viability after 5 days by MTT assay; assay type: cell-based
[6] = system: Human immunodeficiency virus 1; test: Antiviral activity against HIV1 harboring reverse transcriptase K103N mutant infected in human MT4 cells assessed as inhibition of viral replication after 5 days by MTT assay; assay type: functional, organism-based; settings: Human immunodeficiency virus 1, MT4, 120 h
[7] = system: Human immunodeficiency virus 1; test: Antiviral activity against HIV1 harboring reverse transcriptase E138K mutant infected in human MT4 cells assessed as inhibition of viral replication after 5 days by MTT assay; assay type: functional, organism-based; settings: for EC50: Human immunodeficiency virus 1, MT4, 120 h
[8] = system: Human immunodeficiency virus 1; test: Fold resistance, ratio of EC50 for HIV1 harboring reverse transcriptase K103N mutant infected in human MT4 cells to EC50 for wild type HIV1 3B infected in human MT4 cells; assay type: functional
[9] = system: Human immunodeficiency virus 1; test: Potency index, ratio of etravirine EC50 to compound EC50 for HIV1 harboring reverse transcriptase K103N mutant infected in human MT4 cells; assay type: functional
[10] = system: Human immunodeficiency virus 1; test: Antiviral activity against HIV1 RES056 harboring reverse transcriptase K103N/Y181C double mutant infected in human MT4 cells assessed as inhibition of viral replication after 5 days by MTT assay; assay type: functional, organism-based; settings: Human immunodeficiency virus 1, RES056, MT4, 120 h
[11] = system: Human immunodeficiency virus 1; test: Antiviral activity against HIV1 harboring reverse transcriptase Y188L mutant infected in human MT4 cells assessed as inhibition of viral replication after 5 days by MTT assay; assay type: functional, organism-based
[12] = system: Human immunodeficiency virus 1; test: Antiviral activity against HIV1 harboring reverse transcriptase F227L/V106A double mutant infected in human MT4 cells assessed as inhibition of viral replication after 5 days by MTT assay; assay type: functional, organism-based; settings: Human immunodeficiency virus 1, MT4, 120 h
[13] = system: Human immunodeficiency virus 1; test: Antiviral activity against HIV1 harboring reverse transcriptase Y181C mutant infected in human MT4 cells assessed as inhibition of viral replication after 5 days by MTT assay; assay type: functional, organism-based; settings: Human immunodeficiency virus 1, MT4, 120 h
[14] = system: Human immunodeficiency virus 1; test: Potency index, ratio of etravirine EC50 to compound EC50 for wild type HIV1 3B infected in human MT4 cells; assay type: functional
[15] = system: Human immunodeficiency virus 1; test: Antiviral activity against HIV1 harboring reverse transcriptase L100I mutant infected in human MT4 cells assessed as inhibition of viral replication after 5 days by MTT assay; assay type: functional, organism-based; settings: Human immunodeficiency virus 1, MT4, 120 h

SMILES: Cc1cc(C#N)cc(C)c1Oc1nc(Nc2ccc(C#N)cc2)ncc1SCC(=O)N1CC[C@H](NC(=O)OC(C)(C)C)C1
- inhibition [1]: inactive
- IC50 [2]: 13 to 863 nM
- EC50 [3]: 33.9 nM
- selectivity ratio [4]: 152 to 15400
- CC50 at 120 h [5]: 5100 to 149000 nM

SMILES: Cc1cc(C#N)cc(C)c1Oc1nc(Nc2ccc(C#N)cc2)ncc1SCC(=O)N1CCN(C(=O)OC(C)(C)C)CC1
- inhibition [1]: inactive
- IC50 [2]: 13 to 863 nM
- EC50 [3]: 88.5 nM
- selectivity ratio [4]: 152 to 15400
- CC50 at 120 h [5]: 5100 to 149000 nM

SMILES: O=C1Nc2ccc(Cl)cc2[C@@](C#CC2CC2)(C(F)(F)F)O1 [EFAVIRENZ]
- EC50 [6]: 81 nM

SMILES: COC(=O)CCSc1cnc(Nc2ccc(C#N)cc2)nc1Oc1c(C)cc(C#N)cc1C
- inhibition [1]: inactive
- IC50 [2]: 13 to 863 nM
- EC50 [3]: 60.2 nM
- selectivity ratio [4]: 152 to 15400
- CC50 at 120 h [5]: 5100 to 149000 nM

SMILES: Cc1cc(C#N)cc(C)c1Oc1nc(Nc2ccc(C#N)cc2)ncc1SCC(=O)NCc1ccc(O)cc1
- EC50 [6]: 1.4 to 8.3 nM
- inhibition [1]: inactive
- IC50 [2]: 13 to 863 nM
- EC50 [3]: < 10 nM
- selectivity ratio [4]: 152 to 15400
- CC50 at 120 h [5]: 5100 to 149000 nM
- EC50 [7]: 6 to 34.7 nM

SMILES: Cc1cc(C#N)cc(C)c1Oc1nc(Nc2ccc(C#N)cc2)ncc1SCC(=O)N1CCSCC1
- EC50 [6]: 1.4 to 44.9 nM
- inhibition [1]: inactive
- IC50 [2]: 13 to 863 nM
- EC50 [3]: 38.3 nM
- selectivity ratio [4]: 152 to 15400
- CC50 at 120 h [5]: 5100 to 149000 nM
- Ratio EC50 [8]: 0.4 - 1.9
- EC50 [7]: 6 to 157 nM

SMILES: COC(=O)CCS(=O)(=O)c1cnc(Nc2ccc(C#N)cc2)nc1Oc1c(C)cc(C#N)cc1C
- inhibition [1]: inactive
- IC50 [2]: 13 to 863 nM
- EC50 [3]: 1560 nM
- selectivity ratio [4]: 9
- CC50 at 120 h [5]: 5100 to 149000 nM

SMILES: C=CCNC(=O)CSc1cnc(Nc2ccc(C#N)cc2)nc1Oc1c(C)cc(C#N)cc1C
- Ratio EC50 [9]: 1.3 - 2.3
- EC50 [6]: 1.4 to 8.3 nM
- inhibition [1]: inactive
- IC50 [2]: 13 to 863 nM
- EC50 [3]: 2.4 to 3.8 nM
- selectivity ratio [4]: 152 to 15400
- CC50 at 120 h [5]: 5100 to 149000 nM
- EC50 [7]: 6 to 34.7 nM

SMILES: C#CCNC(=O)CSc1cnc(Nc2ccc(C#N)cc2)nc1Oc1c(C)cc(C#N)cc1C
- Ratio EC50 [9]: 1.3 - 2.3
- EC50 [6]: 1.4 to 8.3 nM
- inhibition [1]: inactive
- EC50 [10]: > 100 nM
- inhibition [11]: Active
- EC50 [12]: > 100 nM
- EC50 [13]: 11.1 to 13.8 nM
- IC50 [2]: 23 nM
- EC50 [3]: 2.4 nM
- selectivity ratio [4]: 152 to 15400
- CC50 at 120 h [5]: 5100 to 149000 nM
- Ratio EC50 [14]: 1.6
- EC50 [7]: 6 to 34.7 nM
- EC50 [15]: 7.7 nM

SMILES: COC(=O)CS(=O)(=O)c1cnc(Nc2ccc(C#N)cc2)nc1Oc1c(C)cc(C#N)cc1C
- inhibition [1]: inactive
- IC50 [2]: 13 to 863 nM
- EC50 [3]: 68.8 nM
- selectivity ratio [4]: 152 to 15400
- CC50 at 120 h [5]: 5100 to 149000 nM

SMILES: Cc1cc(C#N)cc(C)c1Oc1nc(Nc2ccc(C#N)cc2)ncc1SCC(=O)NCC1CCCO1 (stereo not drawn)
- EC50 [6]: 1.4 to 8.3 nM
- inhibition [1]: inactive
- IC50 [2]: 13 to 863 nM
- EC50 [3]: < 10 nM
- selectivity ratio [4]: 152 to 15400
- CC50 at 120 h [5]: 5100 to 149000 nM
- EC50 [7]: 6 to 34.7 nM

SMILES: Cc1cc(C#N)cc(C)c1Oc1nc(Nc2ccc(C#N)cc2)ncc1SCC(=O)NCC1CC1
- inhibition [1]: inactive
- IC50 [2]: 13 to 863 nM
- EC50 [3]: 3.8 nM
- selectivity ratio [4]: 152 to 15400
- CC50 at 120 h [5]: 5100 to 149000 nM

SMILES: Cc1cc(C#N)cc(C)c1Oc1nc(Nc2ccc(C#N)cc2)ncc1SCC(=O)C(=O)O
- inhibition [1]: inactive
- IC50 [2]: 13 to 863 nM
- EC50 [3]: 2.4 to 216 nM
- selectivity ratio [4]: 152 to 15400
- CC50 at 120 h [5]: 5100 to 149000 nM

SMILES: Cc1cc(C#N)cc(C)c1Oc1nc(Nc2ccc(C#N)cc2)ncc1SCC(=O)NCCN1CCOCC1
- Ratio EC50 [9]: 1.3 - 2.3
- EC50 [6]: 1.4 to 8.3 nM
- inhibition [1]: inactive
- IC50 [2]: 13 to 863 nM
- EC50 [3]: 2.6 to 6.2 nM
- selectivity ratio [4]: 152 to 15400
- CC50 at 120 h [5]: 5100 to 149000 nM
- EC50 [7]: 6 to 34.7 nM

SMILES: Cc1cc(C#N)cc(C)c1Oc1nc(Nc2ccc(C#N)cc2)ncc1SCC(=O)Nc1ccc(S(C)(=O)=O)cc1
- EC50 [6]: 1.4 to 8.3 nM
- inhibition [1]: inactive
- IC50 [2]: 13 to 863 nM
- EC50 [3]: < 10 nM
- selectivity ratio [4]: 152 to 15400
- CC50 at 120 h [5]: 5100 to 149000 nM
- EC50 [7]: 6 to 34.7 nM

SMILES: COCCNC(=O)CSc1cnc(Nc2ccc(C#N)cc2)nc1Oc1c(C)cc(C#N)cc1C
- Ratio EC50 [9]: 1.3 - 2.3
- EC50 [6]: 1.4 to 8.3 nM
- inhibition [1]: inactive
- EC50 [10]: > 100 nM
- inhibition [11]: Active
- EC50 [12]: > 100 nM
- IC50 [2]: 26 nM
- EC50 [3]: 3.8 nM
- selectivity ratio [4]: 152 to 15400
- CC50 at 120 h [5]: 5100 to 149000 nM
- EC50 [7]: 6 to 34.7 nM

SMILES: Cc1cc(C#N)cc(C)c1Oc1nc(Nc2ccc(C#N)cc2)ncc1SCC(=O)NC1CCN(C(=O)OC(C)(C)C)CC1
- EC50 [6]: 1.4 to 44.9 nM
- inhibition [1]: inactive
- IC50 [2]: 13 to 863 nM
- EC50 [3]: < 10 nM
- selectivity ratio [4]: 152 to 15400
- CC50 at 120 h [5]: 5100 to 149000 nM
- Ratio EC50 [8]: 0.4 - 1.9
- EC50 [7]: 6 to 157 nM

SMILES: COC(=O)CSc1cnc(Nc2ccc(C#N)cc2)nc1Oc1c(C)cc(C#N)cc1C
- inhibition [1]: inactive
- IC50 [2]: 13 to 863 nM
- EC50 [3]: 65.9 nM
- selectivity ratio [4]: 152 to 15400
- CC50 at 120 h [5]: 5100 to 149000 nM

SMILES: Cc1cc(C#N)cc(C)c1Oc1nc(Nc2ccc(C#N)cc2)ncc1SCC(N)=O
- EC50 [6]: 1.4 to 44.9 nM
- inhibition [1]: inactive
- IC50 [2]: 13 to 863 nM
- EC50 [3]: 2.4 to 216 nM
- selectivity ratio [4]: 152 to 15400
- CC50 at 120 h [5]: 5100 to 149000 nM
- Ratio EC50 [8]: 0.4 - 1.9
- EC50 [7]: 6 to 34.7 nM

SMILES: Cc1ccnc2c1NC(=O)c1cccnc1N2C1CC1
- inhibition [7]: Active

SMILES: Cc1cc(C#N)cc(C)c1Oc1nc(Nc2ccc(C#N)cc2)ncc1SCC(=O)NC1CC1
- Ratio EC50 [9]: 1.3 - 2.3
- EC50 [6]: 1.4 to 8.3 nM
- inhibition [1]: inactive
- EC50 [10]: > 100 nM
- inhibition [11]: Active
- EC50 [12]: > 100 nM
- EC50 [13]: 11.1 to 13.8 nM
- IC50 [2]: 21 nM
- EC50 [3]: 2.4 nM
- selectivity ratio [4]: 152 to 15400
- CC50 at 120 h [5]: 5100 to 149000 nM
- Ratio EC50 [14]: 1.6
- EC50 [7]: 6 to 34.7 nM

SMILES: Cc1cn([C@H]2C[C@H](N=[N+]=[N-])[C@@H](CO)O2)c(=O)[nH]c1=O [ZIDOVUDINE]
- EC50 [13]: 14.1 nM
- EC50 [7]: 38.6 nM
- EC50 [15]: 8.3 nM

SMILES: Cc1cc(C#N)cc(C)c1Oc1nc(Nc2ccc(C#N)cc2)ncc1SCC(=O)NCCN1CCN(C(=O)OC(C)(C)C)CC1
- EC50 [6]: 1.4 to 44.9 nM
- inhibition [1]: inactive
- IC50 [2]: 13 to 863 nM
- EC50 [3]: 32.6 nM
- selectivity ratio [4]: 152 to 15400
- CC50 at 120 h [5]: 5100 to 149000 nM
- Ratio EC50 [8]: 0.4 - 1.9
- EC50 [7]: 6 to 157 nM
